Laboratory results as given in patent publication US20090075397A1, “Method for characterizing sugar-binding interactions of biomolecules” (Academia Sinica, priority 2007, published 2009).

T1: lectin UEA-1 (Ulex europaeus, UniProt P22972)
T1 construct: purchased EY Labs, Inc
T1 sequence (P22972 1-243): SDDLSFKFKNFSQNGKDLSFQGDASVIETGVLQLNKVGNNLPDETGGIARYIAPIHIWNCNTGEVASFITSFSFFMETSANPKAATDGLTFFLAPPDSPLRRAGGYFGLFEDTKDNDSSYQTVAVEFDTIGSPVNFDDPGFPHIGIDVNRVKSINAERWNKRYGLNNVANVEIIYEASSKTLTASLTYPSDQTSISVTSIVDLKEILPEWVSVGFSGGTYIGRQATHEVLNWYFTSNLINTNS

B1: PNA: lectin of Arachis hypogaea (protein, UniProt P02872 24-273, looked up)
Galactose-binding lectin: AETVSFNFNSFSEGNPAINFQGDVTVLSNGNIQLTNLNKVNSVGRVLYAMPVRIWSSATGNVASFLTSFSFEMKDIKDYDPADGIIFFIAPEDTQIPAGSIGGGTLGVSDTKGAGHFVGVEFDTYSNSEYNDPPTDHVGIDVNSVDSVKTVPWNSVSGAVVKVTVIYDSSTKTLSVAVTNDNGDITTIAQVVDLKAKLPERVKFGFSASGSLGGRQIHLIRSWSFTSTLITTTRRSIDNNEKKIMNMASA

Assays:
[1] = target: T1, lectin UEA-1; assay: ALPHAScreen sugar/protein binding assay, sugar on donor beads, lectin on acceptor beads; conditions: sugar linked to streptavidin donor beads, UEA-1 on acceptor beads
[2] = test system: recombinant hemagglutinin (HA) of H1N1 (A/Beijing/262/95); format: binding, influenza virus H1N1 (A/Beijing/262/95)
[3] = test system: H1N1 virus (A/Beijing/262/95); format: binding, influenza virus H1N1 (A/Beijing/262/95); conditions: virus particles on acceptor beads, FIG. 5A
[4] = test system: H3N2 virus (A/Panama/2007/99); format: binding, influenza virus H3N2 (A/Panama/2007/99); conditions: virus particles on acceptor beads, FIG. 5B
[5] = test system: anti-Lex antibody; assay: ALPHAScreen sugar/protein binding assay, sugar on donor beads, antibody on acceptor beads; conditions: sugar linked to streptavidin donor beads
[6] = ALPHAScreen profiling of lectin binding specificities with biotinylated PAA-sugars; conditions: for Binding specificities: Table 2 (SI), examined lectins

| Molecule | recognition by HA of H1N1 (A/Beijing/262/95) [2] | recognition by H1N1 virus (A/Beijing/262/95) [3] | further results |
| --- | --- | --- | --- |
| α-L-Fuc [Glycan No. 6] | – | – | binding signal with lectin UEA-1 [1]: able to produce signals |
| (NeuAcα2-8)5-6 [Glycan No. 52] | do not recognize | do not recognize | recognition by H3N2 virus (A/Panama/2007/99) [4]: accepted |
| Galβ1-4(Fucα1-3)GlcNAc (Le^x) [Glycan No. 33] | – | – | binding signal with anti-Lex antibody [5]: able to produce signals |
| SBA: lectin of Glycine max | – | – | Binding specificities [6]: GalNAc/Gal |
| CC(=O)N[C@H]1C(O)O[C@H](CO[C@]2(C(=O)O)C[C@H](O)[C@@H](NC(=O)CO)[C@H]([C@H](O)[C@H](O)CO)O2)[C@H](O)[C@@H]1O (stereo partly drawn) [Glycan No. 22, NeuGcα2-6GalNAc] | do not recognize | do not recognize | – |
| CC(=O)N[C@H]1[C@H]([C@H](O)[C@H](O)CO)O[C@@](O[C@H]2[C@@H](O)[C@@H](CO)OC(O)[C@@H]2NC(C)=O)(C(=O)O)C[C@@H]1O (stereo partly drawn) [Glycan No. 27, NeuAcα2-3GalNAc] | do not recognize | do not recognize | – |
| B1 | – | – | Binding specificities [6]: Galβ1-3GalNAc; lectin sugar binding specificity ([6]; profiled with more than 50 biotinylated PAA-sugars, FIG. 2): binds to the Galb1-3GalNAc structure specifically |
